Results published in US20080274892A1, “Novel Haloalkylsulfonanilide Derivative, Herbicide, and Method of Use Thereof” (priority 2005, published 2008).

Key:
bulrush [1] = experiment: Test Example 1: herbicidal efficacy on rice paddy weeds pre-emergence; assay type: in vivo, Scirpus juncoides; details: 21 days
false pimpernel [2] = experiment: as above; assay type: in vivo, Lindernia pyxidaria; details: 21 days
barnyard glass = experiment: Test Example 2: herbicidal efficacy on rice paddy weeds post-emergence; assay type: in vivo, Echinochloa crus-galli; details: post-emergence, one leaf stage, 21 days after treatment
In short: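 Efficacy on paddy weeds was scored on a 0 to 4 growth-inhibition scale: 4 for 90%-100%, 3 for 70%-89%, 2 for 40%-69%, 1 for 1%-39% and 0 for 0%. Barnyard glass was grown in clay loam in 75 cm^2 pots under 5 cm of water in a hot house. It was compared with untreated pots 21 days after treatment.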

bulrush [3] = experiment: as above; assay type: in vivo, Scirpus juncoides; details: post-emergence, one leaf stage, 21 days after treatment
false pimpernel [4] = experiment: as above; assay type: in vivo, Lindernia pyxidaria; details: post-emergence, one leaf stage, 21 days after treatment
[5] = test system: paddy rice plant (cultivar: Nihonbare); experiment: Test Example 3: phytotoxicity test for transplanted paddy rice plant; assay type: in vivo; details: transplanted rice, 21 days after treatment
In short: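 Clay loam soil was placed in a 75 cm^2 plastic pot and flooded to a water depth of 5 cm. Two Nihonbare paddy rice plants at the two-leaf stage were transplanted 1 cm deep and grown in a hot house. After treatment, pots stayed in the hot house for 21 days, and phytotoxicity was then graded against an untreated control.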

[6] = dosage 1000 g/ha, treated 5 days after transplantation

Compound	Bulrush pre (herbicidal efficacy grade) (bulrush [1]; dosage 1000 g/ha)	False pimpernel pre (herbicidal efficacy grade) (false pimpernel [2]; dosage 1000 g/ha)	Burnyard grass post (herbicidal efficacy grade) (barnyard glass; dosage 1000 g/ha)	Bulrush post (herbicidal efficacy grade) (bulrush [3]; dosage 1000 g/ha)	False pimpernel post (herbicidal efficacy grade) (false pimpernel [4]; dosage 1000 g/ha)	Phytotoxicity to paddy rice [5, 6]	further results
CC[C@H]1CN(Cc2ccccc2NS(=O)(=O)C(F)(F)F)C(=O)O1 [Compound 1-55]	4 (90%-100% of herbicidal efficacy or phytotoxicity)	4 (90%-100% of herbicidal efficacy or phytotoxicity)	4 (90%-100% of herbicidal efficacy or phytotoxicity)	4 (90%-100% of herbicidal efficacy or phytotoxicity)	4 (90%-100% of herbicidal efficacy or phytotoxicity)	1 (1%-39% of herbicidal efficacy or phytotoxicity)	
CCCC1CN(Cc2ccccc2NS(=O)(=O)C(F)(F)F)C(=O)O1 (stereo not drawn) [Compound 1-29]	4 (90%-100% of herbicidal efficacy or phytotoxicity)	4 (90%-100% of herbicidal efficacy or phytotoxicity)	4 (90%-100% of herbicidal efficacy or phytotoxicity)	4 (90%-100% of herbicidal efficacy or phytotoxicity)	4 (90%-100% of herbicidal efficacy or phytotoxicity)	2 (40%-69% of herbicidal efficacy or phytotoxicity)	
CC(=O)OCC1CN(Cc2ccccc2N(C(=O)OCC(C)C)S(=O)(=O)C(F)(F)F)C(=O)O1 (stereo not drawn) [Compound 1-38]							Bulrush pre (herbicidal efficacy grade) (bulrush [1]; dosage 300 g/ha): 3 (70%-89% of herbicidal efficacy or phytotoxicity); False pimpernel pre (herbicidal efficacy grade) (false pimpernel [2]; dosage 300 g/ha): 2 (40%-69% of herbicidal efficacy or phytotoxicity); Burnyard grass post (herbicidal efficacy grade) (barnyard glass; dosage 300 g/ha): 1 (1%-39% of herbicidal efficacy or phytotoxicity); Bulrush post (herbicidal efficacy grade) (bulrush [3]; dosage 300 g/ha): 3 (70%-89% of herbicidal efficacy or phytotoxicity); False pimpernel post (herbicidal efficacy grade) (false pimpernel [4]; dosage 300 g/ha): 1 (1%-39% of herbicidal efficacy or phytotoxicity); Phytotoxicity to paddy rice ([5]; dosage 300 g/ha): 0 (0% of herbicidal efficacy or phytotoxicity)
CCCCC1(C)CN(Cc2ccccc2N(C(=O)OCC(C)C)S(=O)(=O)C(F)(F)F)C(=O)O1 (racemic) [Compound 1-123]	4 (90%-100% of herbicidal efficacy or phytotoxicity)	4 (90%-100% of herbicidal efficacy or phytotoxicity)	4 (90%-100% of herbicidal efficacy or phytotoxicity)	4 (90%-100% of herbicidal efficacy or phytotoxicity)	4 (90%-100% of herbicidal efficacy or phytotoxicity)	1 (1%-39% of herbicidal efficacy or phytotoxicity)	
CC(C)(C)OC(=O)NCC1CN(Cc2ccccc2NS(=O)(=O)C(F)(F)F)C(=O)O1 (racemic) [1-106]							Bulrush pre (herbicidal efficacy grade) (bulrush [1]; dosage 300 g/ha): 4 (90%-100% of herbicidal efficacy or phytotoxicity); False pimpernel pre (herbicidal efficacy grade) (false pimpernel [2]; dosage 300 g/ha): 2 (40%-69% of herbicidal efficacy or phytotoxicity); Burnyard grass post (herbicidal efficacy grade) (barnyard glass; dosage 300 g/ha): 0 (0% of herbicidal efficacy or phytotoxicity); Bulrush post (herbicidal efficacy grade) (bulrush [3]; dosage 300 g/ha): 4 (90%-100% of herbicidal efficacy or phytotoxicity); False pimpernel post (herbicidal efficacy grade) (false pimpernel [4]; dosage 300 g/ha): 2 (40%-69% of herbicidal efficacy or phytotoxicity); Phytotoxicity to paddy rice ([5]; dosage 300 g/ha): 0 (0% of herbicidal efficacy or phytotoxicity)
CC(C)COC(=O)N(c1ccccc1CN1CC(C(C)(C)C)OC1=O)S(=O)(=O)C(F)(F)F (stereo not drawn) [Compound 1-34]	4 (90%-100% of herbicidal efficacy or phytotoxicity)	4 (90%-100% of herbicidal efficacy or phytotoxicity)	4 (90%-100% of herbicidal efficacy or phytotoxicity)	4 (90%-100% of herbicidal efficacy or phytotoxicity)	4 (90%-100% of herbicidal efficacy or phytotoxicity)	1 (1%-39% of herbicidal efficacy or phytotoxicity)	
CC(C)COC(=O)N(c1ccccc1CN1CC(c2ccccc2)OC1=O)S(=O)(=O)C(F)(F)F (stereo not drawn) [Compound 1-42]	3 (70%-89% of herbicidal efficacy or phytotoxicity)	4 (90%-100% of herbicidal efficacy or phytotoxicity)	4 (90%-100% of herbicidal efficacy or phytotoxicity)	3 (70%-89% of herbicidal efficacy or phytotoxicity)	3 (70%-89% of herbicidal efficacy or phytotoxicity)	0 (0% of herbicidal efficacy or phytotoxicity)	
CC(C)COC(=O)N(c1ccccc1CN1CC(COc2ccccc2)OC1=O)S(=O)(=O)C(F)(F)F (racemic) [Compound 1-52]							Bulrush pre (herbicidal efficacy grade) (bulrush [1]; dosage 300 g/ha): 4 (90%-100% of herbicidal efficacy or phytotoxicity); False pimpernel pre (herbicidal efficacy grade) (false pimpernel [2]; dosage 300 g/ha): 4 (90%-100% of herbicidal efficacy or phytotoxicity); Burnyard grass post (herbicidal efficacy grade) (barnyard glass; dosage 300 g/ha): 3 (70%-89% of herbicidal efficacy or phytotoxicity); Bulrush post (herbicidal efficacy grade) (bulrush [3]; dosage 300 g/ha): 4 (90%-100% of herbicidal efficacy or phytotoxicity); False pimpernel post (herbicidal efficacy grade) (false pimpernel [4]; dosage 300 g/ha): 4 (90%-100% of herbicidal efficacy or phytotoxicity); Phytotoxicity to paddy rice ([5]; dosage 300 g/ha): 0 (0% of herbicidal efficacy or phytotoxicity)
CC(C)COC(=O)N(c1ccccc1CN1CC(C)(COCc2ccccc2)OC1=O)S(=O)(=O)C(F)(F)F (stereo not drawn) [Compound 1-174]	4 (90%-100% of herbicidal efficacy or phytotoxicity)	4 (90%-100% of herbicidal efficacy or phytotoxicity)	4 (90%-100% of herbicidal efficacy or phytotoxicity)	4 (90%-100% of herbicidal efficacy or phytotoxicity)	4 (90%-100% of herbicidal efficacy or phytotoxicity)	1 (1%-39% of herbicidal efficacy or phytotoxicity)	
COC(=O)N(c1ccccc1CN1CC(C)(COc2ccccc2)OC1=O)S(=O)(=O)C(F)(F)F (stereo not drawn) [Compound 1-159]	4 (90%-100% of herbicidal efficacy or phytotoxicity)	4 (90%-100% of herbicidal efficacy or phytotoxicity)	4 (90%-100% of herbicidal efficacy or phytotoxicity)	4 (90%-100% of herbicidal efficacy or phytotoxicity)	4 (90%-100% of herbicidal efficacy or phytotoxicity)	1 (1%-39% of herbicidal efficacy or phytotoxicity)	
CC(C)COC(=O)N(c1ccccc1CN1CC(C)(C(C)(C)C)OC1=O)S(=O)(=O)C(F)(F)F (stereo not drawn) [Compound 1-70]	4 (90%-100% of herbicidal efficacy or phytotoxicity)	4 (90%-100% of herbicidal efficacy or phytotoxicity)	4 (90%-100% of herbicidal efficacy or phytotoxicity)	4 (90%-100% of herbicidal efficacy or phytotoxicity)	4 (90%-100% of herbicidal efficacy or phytotoxicity)	1 (1%-39% of herbicidal efficacy or phytotoxicity)	
O=C1OC(CCl)CN1Cc1ccccc1NS(=O)(=O)C(F)(F)F (stereo not drawn) [Compound 1-39]	4 (90%-100% of herbicidal efficacy or phytotoxicity)	4 (90%-100% of herbicidal efficacy or phytotoxicity)	2 (40%-69% of herbicidal efficacy or phytotoxicity)	4 (90%-100% of herbicidal efficacy or phytotoxicity)	4 (90%-100% of herbicidal efficacy or phytotoxicity)	0 (0% of herbicidal efficacy or phytotoxicity)	
CCCCC1(C)CN(Cc2ccccc2N(C(=O)OC)S(=O)(=O)C(F)(F)F)C(=O)O1 (stereo not drawn) [Compound 1-128]							Bulrush pre (herbicidal efficacy grade) (bulrush [1]; dosage 100 g/ha): 2 (40%-69% of herbicidal efficacy or phytotoxicity); False pimpernel pre (herbicidal efficacy grade) (false pimpernel [2]; dosage 100 g/ha): 4 (90%-100% of herbicidal efficacy or phytotoxicity); Burnyard grass post (herbicidal efficacy grade) (barnyard glass; dosage 100 g/ha): 3 (70%-89% of herbicidal efficacy or phytotoxicity); Bulrush post (herbicidal efficacy grade) (bulrush [3]; dosage 100 g/ha): 3 (70%-89% of herbicidal efficacy or phytotoxicity); False pimpernel post (herbicidal efficacy grade) (false pimpernel [4]; dosage 100 g/ha): 2 (40%-69% of herbicidal efficacy or phytotoxicity); Phytotoxicity to paddy rice ([5]; dosage 100 g/ha as printed in the table line): 1 (1%-39% of herbicidal efficacy or phytotoxicity)
CC(C)COC(=O)N(c1ccccc1CN1C(=O)OC(C)(C)C1(C)C)S(=O)(=O)C(F)(F)F [Compound 1-74]	4 (90%-100% of herbicidal efficacy or phytotoxicity)	4 (90%-100% of herbicidal efficacy or phytotoxicity)	4 (90%-100% of herbicidal efficacy or phytotoxicity)	4 (90%-100% of herbicidal efficacy or phytotoxicity)	4 (90%-100% of herbicidal efficacy or phytotoxicity)	4 (90%-100% of herbicidal efficacy or phytotoxicity)	
